In brackets after ≈: the same amount, converted by molar mass. Like-named read-outs stand apart in the source and are kept apart here.
What was measured:
A. baumannii = assay: MIC, broth microdilution, CDC/FDA Antibiotic Resistance Isolate Bank (Example 7, Tables 9, 13, 14); assay type: cell-based, Acinetobacter baumannii; conditions: for MIC: read-out: MIC
53 CRE and CPE strains = assay: MICrange, MIC50, MIC80, MIC90 for 53 bacterial isolates (Example 5, Table 5); assay type: cell-based; conditions: 53 bacterial isolates
Enterobacterales = assay: MIC, broth microdilution, CDC/FDA Antibiotic Resistance Isolate Bank (Example 7, Tables 8, 11, 12); assay type: cell-based; conditions: for MIC: read-out: MIC

CO/N=C(\C(=O)N[C@@H]1C(=O)N2C(C(=O)[O-])=C(C[n+]3ccn4ncccc43)CS[C@H]12)c1nsc(N)n1 [Cefozopran, cefozopran]
MIC (A. baumannii; Acinetobacter baumannii, A. baumannii KUB No. 5567, AR Bank #70, OXA-58, OXA-100): 2 µg/mL (≈ 3.88 µM)
MIC (A. baumannii; Acinetobacter baumannii, A. baumannii KUB No. 5575, AR Bank #78, OXA-71): > 64 µg/mL
MIC (A. baumannii; Acinetobacter baumannii, A. baumannii KUB No. 5580, AR Bank #83, OXA-23, OXA-69, NDM-1): > 64 µg/mL
MIC (A. baumannii; Acinetobacter baumannii, A. baumannii KUB No. 5585, AR Bank #88, OXA-64, NDM-1): > 64 µg/mL
MIC (A. baumannii; Acinetobacter baumannii, A. baumannii KUB No. 5598, AR Bank #101, OXA-24, OXA-65): 32 µg/mL (≈ 62.1 µM)
MIC (A. baumannii; Acinetobacter baumannii, A. baumannii KUB No. 5599, AR Bank #102, OXA-66): 8 µg/mL (≈ 15.5 µM)
MIC (A. baumannii; Acinetobacter baumannii, A. baumannii KUB No. 5706, AR Bank #273, OXA-23, OXA-66): 64 µg/mL (≈ 124 µM)
MIC (A. baumannii; Acinetobacter baumannii, A. baumannii KUB No. 5707, AR Bank #274, OXA-66, OXA-72): 16 µg/mL (≈ 31 µM)
MIC (A. baumannii; Acinetobacter baumannii, A. baumannii KUB No. 5708, AR Bank #275, OXA-23, OXA-66): 64 µg/mL (≈ 124 µM)
MIC (A. baumannii; Acinetobacter baumannii, A. baumannii KUB No. 5709, AR Bank #276, no carbapenemase genes (-)): > 64 µg/mL
MIC (A. baumannii; Acinetobacter baumannii, A. baumannii KUB No. 5710, AR Bank #277, OXA-24, OXA-65): 64 µg/mL (≈ 124 µM)
MIC (A. baumannii; Acinetobacter baumannii, A. baumannii KUB No. 5711, AR Bank #278, OXA-23, OXA-66): 64 µg/mL (≈ 124 µM)
MIC (A. baumannii; Acinetobacter baumannii, A. baumannii KUB No. 5712, AR Bank #279, OXA-23, OXA-66): 64 µg/mL (≈ 124 µM)
MIC (A. baumannii; Acinetobacter baumannii, A. baumannii KUB No. 5713, AR Bank #280, OXA-66): 8 µg/mL (≈ 15.5 µM)
MIC (A. baumannii; Acinetobacter baumannii, A. baumannii KUB No. 5714, AR Bank #281, OXA-82): 8 µg/mL (≈ 15.5 µM)
MIC (A. baumannii; Acinetobacter baumannii, A. baumannii KUB No. 5715, AR Bank #282, OXA-23, OXA-66): 64 µg/mL (≈ 124 µM)
MIC (A. baumannii; Acinetobacter baumannii, A. baumannii KUB No. 5716, AR Bank #283, OXA-23, OXA-66): 32 µg/mL (≈ 62.1 µM)
MIC (A. baumannii; Acinetobacter baumannii, A. baumannii KUB No. 5717, AR Bank #284, OXA-24, OXA-65): 16 µg/mL (≈ 31 µM)
MIC (A. baumannii; Acinetobacter baumannii, A. baumannii KUB No. 5718, AR Bank #285, OXA-24, OXA-65): 32 µg/mL (≈ 62.1 µM)
MIC (A. baumannii; Acinetobacter baumannii, KUB No. 5719, AR Bank #286): 32 µg/mL (≈ 62.1 µM)
MIC (A. baumannii; Acinetobacter baumannii, KUB No. 5720, AR Bank #287): 32 µg/mL (≈ 62.1 µM)
MIC (A. baumannii; Acinetobacter baumannii, KUB No. 5721, AR Bank #288): 64 µg/mL (≈ 124 µM)
MIC (A. baumannii; Acinetobacter baumannii, KUB No. 5722, AR Bank #259): 8 µg/mL (≈ 15.5 µM)
MIC (A. baumannii; Acinetobacter baumannii, KUB No. 5723, AR Bank #290): > 64 µg/mL
MIC (A. baumannii; Acinetobacter baumannii, KUB No. 5724, AR Bank #291): 32 µg/mL (≈ 62.1 µM)
MIC (A. baumannii; Acinetobacter baumannii, KUB No. 5725, AR Bank #292): 16 µg/mL (≈ 31 µM)
MIC (A. baumannii; Acinetobacter baumannii, KUB No. 5726, AR Bank #293): 16 µg/mL (≈ 31 µM)
MIC (A. baumannii; Acinetobacter baumannii, KUB No. 5727, AR Bank #294): > 64 µg/mL
MIC (A. baumannii; Acinetobacter baumannii, KUB No. 5728, AR Bank #295): 64 µg/mL (≈ 124 µM)
MIC (A. baumannii; Acinetobacter baumannii, KUB No. 5729, AR Bank #296): > 64 µg/mL
MIC (A. baumannii; Acinetobacter baumannii, KUB No. 5730, AR Bank #297): 64 µg/mL (≈ 124 µM)
MIC (A. baumannii; Acinetobacter baumannii, KUB No. 5731, AR Bank #298): 16 µg/mL (≈ 31 µM)
MIC (A. baumannii; Acinetobacter baumannii, KUB No. 5732, AR Bank #299): > 64 µg/mL
MIC (A. baumannii; Acinetobacter baumannii, KUB No. 5733, AR Bank #300): 8 µg/mL (≈ 15.5 µM)
MIC (A. baumannii; Acinetobacter baumannii, KUB No. 5734, AR Bank #301): > 64 µg/mL
MIC (A. baumannii; Acinetobacter baumannii, KUB No. 5735, AR Bank #302): > 64 µg/mL
MIC (A. baumannii; Acinetobacter baumannii, KUB No. 5736, AR Bank #303): 32 µg/mL (≈ 62.1 µM)
MIC (A. baumannii; Acinetobacter baumannii, KUB No. 5737, AR Bank #304): 8 µg/mL (≈ 15.5 µM)
MIC (A. baumannii; Acinetobacter baumannii, KUB No. 5738, AR Bank #305): 16 µg/mL (≈ 31 µM)
MIC (A. baumannii; Acinetobacter baumannii, KUB No. 5739, AR Bank #306): 64 µg/mL (≈ 124 µM)
MIC (A. baumannii; Acinetobacter baumannii, KUB No. 5740, AR Bank #307): 16 µg/mL (≈ 31 µM)
MIC (A. baumannii; Acinetobacter baumannii, KUB No. 5741, AR Bank #308): 4 µg/mL (≈ 7.76 µM)
MIC (A. baumannii; Acinetobacter baumannii, KUB No. 5742, AR Bank #309): 64 µg/mL (≈ 124 µM)
MIC (A. baumannii; Acinetobacter baumannii, KUB No. 5743, AR Bank #310): 64 µg/mL (≈ 124 µM)
MIC (A. baumannii; Acinetobacter baumannii, KUB No. 5744, AR Bank #311): > 64 µg/mL
MIC (A. baumannii; Acinetobacter baumannii, KUB No. 5745, AR Bank #312): 16 µg/mL (≈ 31 µM)
MIC (A. baumannii; Acinetobacter baumannii, KUB No. 5746, AR Bank #313): 64 µg/mL (≈ 124 µM)
MIC50 (A. baumannii; Acinetobacter baumannii, 55 isolates of A. baumannii, read-out: MIC50): 64 µg/mL (≈ 124 µM)
MIC80 (A. baumannii; Acinetobacter baumannii, 55 isolates of A. baumannii, read-out: MIC80): > 64 µg/mL
MIC90 (A. baumannii; Acinetobacter baumannii, 55 isolates of A. baumannii, read-out: MIC90): > 64 µg/mL
Number of isolates at MIC >64 µg/mL (A. baumannii; MIC distribution, metallo-β-lactamase-producing A. baumannii, inhibitor µg/mL in parentheses): 4
MIC50 (53 CRE and CPE strains; read-out: MIC50): 32 µg/mL (≈ 62.1 µM)
MIC80 (53 CRE and CPE strains; read-out: MIC80): > 64 µg/mL
MIC90 (53 CRE and CPE strains; read-out: MIC90): > 64 µg/mL
MIC50 (Enterobacterales; 154 strains of Enterobacterales, read-out: MIC50): 64 µg/mL (≈ 124 µM)
MIC80 (Enterobacterales; 154 strains of Enterobacterales, read-out: MIC80): > 64 µg/mL
MIC90 (Enterobacterales; 154 strains of Enterobacterales, read-out: MIC90): > 64 µg/mL
MIC (Enterobacterales; Citrobacter freundii, KUB No. 5654, AR Bank # 157): > 64 µg/mL
MIC (Enterobacterales; Enterobacter cloacae, Enterobacter cloacae KUB No. 5792, AR Bank #448): > 64 µg/mL
MIC (Enterobacterales; Enterobacter cloacae, Enterobacter cloacae KUB No. 5807, AR Bank #501): > 64 µg/mL
MIC (Enterobacterales; Enterobacter cloacae, Enterobacter cloacae KUB No. 5808, AR Bank #502): > 64 µg/mL
MIC (Enterobacterales; Enterobacter cloacae, Enterobacter cloacae complex, KUB No. 5661, AR Bank # 164): 1 µg/mL (≈ 1.94 µM)
MIC (Enterobacterales; Enterobacter cloacae, Enterobacter cloacae group, KUB No. 5629, AR Bank # 132): 0.25 µg/mL (≈ 0.485 µM)
MIC (Enterobacterales; Enterobacter cloacae, KUB No. 5529, AR Bank# 32): 4 µg/mL (≈ 7.76 µM)
MIC (Enterobacterales; Enterobacter cloacae, KUB No. 5535, AR Bank# 38): > 64 µg/mL
MIC (Enterobacterales; Enterobacter cloacae, KUB No. 5547, AR Bank# 50): 8 µg/mL (≈ 15.5 µM)
MIC (Enterobacterales; Enterobacter cloacae, KUB No. 5550, AR Bank# 53): > 64 µg/mL
MIC (Enterobacterales; Enterobacter cloacae, KUB No. 5557, AR Bank# 60): 2 µg/mL (≈ 3.88 µM)
MIC (Enterobacterales; Enterobacter cloacae, KUB No. 5562, AR Bank # 65): 16 µg/mL (≈ 31 µM)
MIC (Enterobacterales; Enterobacter cloacae, KUB No. 5569, AR Bank # 72): 16 µg/mL (≈ 31 µM)
MIC (Enterobacterales; Enterobacter cloacae, KUB No. 5570, AR Bank # 73): 0.25 µg/mL (≈ 0.485 µM)
MIC (Enterobacterales; Enterobacter cloacae, KUB No. 5590, AR Bank # 93): 32 µg/mL (≈ 62.1 µM)
MIC (Enterobacterales; Enterobacter cloacae, KUB No. 5660, AR Bank # 163): > 64 µg/mL
MIC (Enterobacterales; Enterobacter cloacae, KUB No. 5761, AR Bank # 365): 16 µg/mL (≈ 31 µM)
MIC (Enterobacterales; Enterobacter cloacae, KUB No. 5762, AR Bank # 366): 16 µg/mL (≈ 31 µM)
MIC (Enterobacterales; Enterobacter cloacae, KUB No. 5763, AR Bank # 367): 4 µg/mL (≈ 7.76 µM)
MIC (Enterobacterales; Enterobacter cloacae, KUB No. 5778, AR Bank # 432): > 64 µg/mL
MIC (Enterobacterales; Enterobacter cloaccae, KUB No. 5651, AR Bank # 154): > 64 µg/mL
MIC (Enterobacterales; Enterobacter clooreae, KUB No. 5633, AR Bank # 136): > 64 µg/mL
MIC (Enterobacterales; Escherichia coli, Escherichia coli KUB No. 5783, AR Bank #437): > 64 µg/mL
MIC (Enterobacterales; Escherichia coli, Escherichia coli KUB No. 5794, AR Bank #450): > 64 µg/mL
MIC (Enterobacterales; Escherichia coli, Escherichia coli KUB No. 5795, AR Bank #451): 64 µg/mL (≈ 124 µM)
MIC (Enterobacterales; Escherichia coli, Escherichia coli KUB No. 5796, AR Bank #452): > 64 µg/mL
MIC (Enterobacterales; Escherichia coli, Escherichia coli KUB No. 5803, AR Bank #861): > 64 µg/mL
MIC (Enterobacterales; Escherichia coli, KUB No. 5558, AR Bank # 61): 16 µg/mL (≈ 31 µM)
MIC (Enterobacterales; Escherichia coli, KUB No. 5564, AR Bank # 67): 0.25 µg/mL (≈ 0.485 µM)
MIC (Enterobacterales; Escherichia coli, KUB No. 5566, AR Bank # 69): > 64 µg/mL
MIC (Enterobacterales; Escherichia coli, KUB No. 5574, AR Bank # 77): 0.06 µg/mL (≈ 0.116 µM)
MIC (Enterobacterales; Escherichia coli, KUB No. 5578, AR Bank # 81): 0.5 µg/mL (≈ 0.97 µM)
MIC (Enterobacterales; Escherichia coli, KUB No. 5581, AR Bank # 84): 0.25 µg/mL (≈ 0.485 µM)
MIC (Enterobacterales; Escherichia coli, KUB No. 5582, AR Bank # 85): 8 µg/mL (≈ 15.5 µM)
MIC (Enterobacterales; Escherichia coli, KUB No. 5583, AR Bank # 86): > 64 µg/mL
MIC (Enterobacterales; Escherichia coli, KUB No. 5586, AR Bank # 89): 0.5 µg/mL (≈ 0.97 µM)
MIC (Enterobacterales; Escherichia coli, KUB No. 5601, AR Bank # 104): 32 µg/mL (≈ 62.1 µM)
MIC (Enterobacterales; Escherichia coli, KUB No. 5611, AR Bank # 114): 16 µg/mL (≈ 31 µM)
MIC (Enterobacterales; Escherichia coli, KUB No. 5615, AR Bank # 118): > 64 µg/mL
MIC (Enterobacterales; Escherichia coli, KUB No. 5616, AR Bank # 119): > 64 µg/mL
MIC (Enterobacterales; Escherichia coli, KUB No. 5625, AR Bank # 128): > 64 µg/mL
MIC (Enterobacterales; Escherichia coli, KUB No. 5634, AR Bank # 137): > 64 µg/mL
MIC (Enterobacterales; Escherichia coli, KUB No. 5646, AR Bank # 149): > 64 µg/mL
MIC (Enterobacterales; Escherichia coli, KUB No. 5647, AR Bank # 150): > 64 µg/mL
MIC (Enterobacterales; Escherichia coli, KUB No. 5648, AR Bank # 151): > 64 µg/mL
MIC (Enterobacterales; Escherichia coli, KUB No. 5659, AR Bank # 162): > 64 µg/mL
MIC (Enterobacterales; Escherichia coli, KUB No. 5764, AR Bank # 368): 0.06 µg/mL (≈ 0.116 µM)

From patent EP4635500A1, “THERAPEUTIC AGENT FOR BACTERIAL INFECTION” (Sumitomo Pharma Co., Ltd., priority 2022, dated 2024)
